Test [1] deals with T1, Melanocortin receptor 4 (Homo sapiens, UniProt P32245). Kind of test: cAMP accumulation in HEK cells transfected with human melanocortin 4 receptor (hMC4R) with respect to alpha-MSH. To be noted: HEK293. It is filed as functional, cell-based. For orientation: Cyclic AMP is a second messenger, typically raised through Gs and lowered through Gi signalling.
The target in test [2] is T1, Melanocortin receptor 4. Kind of test: Agonistic activity measured as […] cAMP accumulation in HEK cells expressing human Melanocortin 4 receptor (hMC4R). It is filed as functional, cell-based, HEK293.
Test [3] has as its target Adrenocorticotropic hormone receptor (Mus musculus, UniProt Q64326). In words: In vitro cAMP accumulation in Y1 cells transfected with mouse Melanocortin 2 receptor (mMC2R). It is filed as functional, cell-based.
For another test, the target named is Melanocortin receptor 3 (Homo sapiens, UniProt P41968). In words: In vitro cAMP accumulation in HEK cells transfected with human Melanocortin 3 receptor (hMC3R). It is filed as functional, cell-based, HEK293.
Sequence of Melanocortin receptor 3 (P41968 whole entry): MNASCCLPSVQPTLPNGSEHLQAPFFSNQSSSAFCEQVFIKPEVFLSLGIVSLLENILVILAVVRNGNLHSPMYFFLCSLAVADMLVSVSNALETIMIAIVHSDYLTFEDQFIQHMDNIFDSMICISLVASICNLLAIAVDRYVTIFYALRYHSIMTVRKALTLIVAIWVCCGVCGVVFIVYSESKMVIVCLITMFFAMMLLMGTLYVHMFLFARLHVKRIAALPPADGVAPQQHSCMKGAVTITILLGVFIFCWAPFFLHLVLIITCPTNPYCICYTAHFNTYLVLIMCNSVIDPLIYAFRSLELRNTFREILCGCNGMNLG
The target of test [4] is Melanocyte-stimulating hormone receptor (Homo sapiens, UniProt Q01726). In words: In vitro cAMP accumulation in HEK cells transfected with human Melanocortin 1 receptor (hMC1R). It is filed as functional, cell-based, HEK293.
Sequence of Melanocyte-stimulating hormone receptor (Q01726 whole entry): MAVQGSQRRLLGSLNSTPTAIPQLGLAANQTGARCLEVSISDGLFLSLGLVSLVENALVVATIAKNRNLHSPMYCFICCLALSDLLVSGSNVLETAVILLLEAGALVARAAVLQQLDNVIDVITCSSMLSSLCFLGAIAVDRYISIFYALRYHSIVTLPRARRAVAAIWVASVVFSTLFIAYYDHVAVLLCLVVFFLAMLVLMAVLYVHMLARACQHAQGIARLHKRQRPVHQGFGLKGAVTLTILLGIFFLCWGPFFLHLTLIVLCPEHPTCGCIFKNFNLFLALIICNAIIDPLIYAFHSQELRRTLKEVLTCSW
The next test deals with Melanocortin receptor 5 (Homo sapiens, UniProt P33032). Kind of test: In vitro cAMP accumulation in HEK cells transfected with human Melanocortin 5 receptor (hMC5R). It is filed as functional, cell-based, HEK293.
Sequence of Melanocortin receptor 5 (P33032 whole entry): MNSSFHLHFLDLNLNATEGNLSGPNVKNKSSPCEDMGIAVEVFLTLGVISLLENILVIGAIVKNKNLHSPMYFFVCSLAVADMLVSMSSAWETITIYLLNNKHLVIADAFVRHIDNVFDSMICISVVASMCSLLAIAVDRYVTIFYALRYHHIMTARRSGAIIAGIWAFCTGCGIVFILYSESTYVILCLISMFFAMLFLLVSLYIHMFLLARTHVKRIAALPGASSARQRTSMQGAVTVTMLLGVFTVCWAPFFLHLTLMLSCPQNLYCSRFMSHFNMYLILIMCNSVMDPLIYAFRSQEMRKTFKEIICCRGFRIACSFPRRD
For test [5], the target named is Melanocortin receptor 4 (Mus musculus, UniProt P56450). In words: In vitro cAMP accumulation in Y1 cells transfected with mouse Melanocortin 4 receptor (mMC4R). It is filed as functional, cell-based.
Sequence of Melanocortin receptor 4 (Mus musculus, UniProt P56450) (P56450 whole entry): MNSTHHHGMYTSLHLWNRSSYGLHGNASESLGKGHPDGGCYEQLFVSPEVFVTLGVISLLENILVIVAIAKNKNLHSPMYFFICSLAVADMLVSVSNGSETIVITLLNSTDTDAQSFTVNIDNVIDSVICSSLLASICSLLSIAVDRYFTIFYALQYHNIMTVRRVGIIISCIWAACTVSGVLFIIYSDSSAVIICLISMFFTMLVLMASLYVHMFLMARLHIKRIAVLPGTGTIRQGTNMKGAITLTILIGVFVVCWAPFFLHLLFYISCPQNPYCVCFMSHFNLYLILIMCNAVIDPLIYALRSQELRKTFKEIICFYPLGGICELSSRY
Test [6] has as its target T1, Melanocortin receptor 4. In words: cAMP accumulation in HEK cells transfected with human Melanocortin 4 receptor (hMC4R) with respect to alpha-MSH. It is filed as functional, cell-based. The settings on record: HEK293.

Broadly, the EC50 is the concentration giving half of the maximal effect. The low end stands for higher potency in that assay, the high end for lower potency in that assay.

Sequence of Adrenocorticotropic hormone receptor (Q64326 whole entry): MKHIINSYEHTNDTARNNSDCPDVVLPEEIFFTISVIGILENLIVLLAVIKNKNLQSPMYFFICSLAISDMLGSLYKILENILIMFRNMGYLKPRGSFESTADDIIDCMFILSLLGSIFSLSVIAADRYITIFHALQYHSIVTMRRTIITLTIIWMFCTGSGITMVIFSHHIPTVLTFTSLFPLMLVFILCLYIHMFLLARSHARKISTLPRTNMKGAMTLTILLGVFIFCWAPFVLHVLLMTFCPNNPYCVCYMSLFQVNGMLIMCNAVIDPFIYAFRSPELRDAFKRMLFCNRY
T1 sequence (P32245 whole entry): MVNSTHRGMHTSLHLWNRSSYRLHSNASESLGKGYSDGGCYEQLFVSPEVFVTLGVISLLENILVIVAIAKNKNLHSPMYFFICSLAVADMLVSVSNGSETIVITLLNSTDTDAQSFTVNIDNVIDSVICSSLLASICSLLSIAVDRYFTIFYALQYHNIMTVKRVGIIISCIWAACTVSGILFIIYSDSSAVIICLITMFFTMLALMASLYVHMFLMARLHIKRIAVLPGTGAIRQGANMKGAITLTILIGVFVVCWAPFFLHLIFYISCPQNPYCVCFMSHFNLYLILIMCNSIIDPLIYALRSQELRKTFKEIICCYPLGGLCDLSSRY

`CS(=O)(=O)N1CC2(CCN(C(=O)[C@@H](Cc3ccc(Cl)cc3)NC(=O)[C@H]3Cc4ccccc4CN3)CC2)c2ccccc21` displayed a Stimulation on Melanocortin receptor 4 [1] of 100%. This compound also showed a concentration giving a half-maximal response (EC50) at Melanocortin receptor 4 [2] of 190 nM.

With `O=C(N[C@H](Cc1ccc(Cl)cc1)C(=O)N1CCN(c2ccccc2Cn2cncn2)CC1)[C@H]1Cc2ccccc2CN1`, the Stimulation on Melanocortin receptor 4 [1] was 100%. Besides, the EC50 is over 10000 nM in test [3]; over 3000 nM on Melanocortin receptor 3; over 3000 nM in test [4]; 80 nM on Melanocortin receptor 4 [2]; over 3000 nM at Melanocortin receptor 5; 59 nM at Melanocortin receptor 4 [5].

`CCC(CC)N(Cc1ccccc1N1CCN(C(=O)[C@@H](Cc2ccc(Cl)cc2)NC(=O)[C@H]2Cc3ccccc3CN2)CC1)S(C)(=O)=O` showed a Stimulation at Melanocortin receptor 4 [1] of 100%. Further, at Melanocortin receptor 4 [2], the EC50 came to 2200 nM.

Compound `COC(=O)C(=O)Nc1ccccc1N1CCN(C(=O)[C@@H](Cc2ccc(Cl)cc2)NC(=O)[C@H]2Cc3ccccc3CN2)CC1` returned a Stimulation on Melanocortin receptor 4 [1] of 55%. The compound also displayed an EC50 on Melanocortin receptor 4 [2] of 1600 nM.

`CC(C)CN(Cc1ccccc1N1CCN(C(=O)[C@@H](Cc2ccc(Cl)cc2)NC(=O)[C@H]2Cc3ccccc3CN2)CC1)S(C)(=O)=O` gave a Stimulation on Melanocortin receptor 4 [1] of 100%. The compound further registered an EC50 at Melanocortin receptor 4 [2] of 380 nM.

`COc1ccc(Cn2cncn2)c(N2CCN(C(=O)[C@@H](Cc3ccc(Cl)cc3)NC(=O)[C@H]3Cc4ccccc4CN3)CC2)c1` had a Stimulation at Melanocortin receptor 4 [1] of 100%. For the same compound, the midpoint of the response at Melanocortin receptor 4 [2], the EC50, lay at 110 nM.

On to `CCOC(=O)CNC(=O)Nc1ccccc1N1CCN(C(=O)[C@@H](Cc2ccc(Cl)cc2)NC(=O)[C@H]2Cc3ccccc3CN2)CC1`, for which the Stimulation on Melanocortin receptor 4 [1] was 68%. On Melanocortin receptor 4 [2], the EC50 came out at 2100 nM.

The compound `CN(C)C(=O)Nc1ccccc1N1CCN(C(=O)[C@@H](Cc2ccc(Cl)cc2)NC(=O)[C@H]2Cc3ccccc3CN2)CC1` came in with a Fold stimulation on Melanocortin receptor 4 [6] of 7%.

On to `CCC(C)N(Cc1ccccc1N1CCN(C(=O)[C@@H](Cc2ccc(Cl)cc2)NC(=O)[C@H]2Cc3ccccc3CN2)CC1)S(C)(=O)=O` (stereo partly drawn), for which the Stimulation on Melanocortin receptor 4 [1] worked out at 100%. Further, on Melanocortin receptor 4 [2], the response was half-maximal at 1000 nM (EC50).

Regarding `O=C(Nc1ccccc1N1CCN(C(=O)[C@@H](Cc2ccc(Cl)cc2)NC(=O)[C@H]2Cc3ccccc3CN2)CC1)c1cccnc1`, on Melanocortin receptor 4 [1], the Stimulation came out at 83%. In addition, the midpoint of the response at Melanocortin receptor 4 [2], the EC50, lay at 1100 nM.

Turning to `O=C(N[C@H](Cc1ccc(Cl)cc1)C(=O)N1CCN(c2c(Cn3cncn3)ccc3ccccc23)CC1)[C@H]1Cc2ccccc2CN1`, the Stimulation at Melanocortin receptor 4 [1] stood at 100%. In addition, the EC50 on Melanocortin receptor 4 [2] turned out to be 170 nM.

`O=C(N[C@H](Cc1ccc(Cl)cc1)C(=O)N1CCC(Cn2cncn2)(C2CCCCC2)CC1)[C@H]1Cc2ccccc2CN1` displayed a Stimulation on Melanocortin receptor 4 [1] of 100%. The concentration giving a half-maximal response (EC50) in test [3] is over 10000 nM; at Melanocortin receptor 5, 2700 nM; on Melanocortin receptor 4 [5] it was 7.6 nM.

Turning to `O=C(N[C@H](Cc1ccc(Cl)cc1)C(=O)N1CCN(c2cccc(Cl)c2Cn2cncn2)CC1)[C@H]1Cc2ccccc2CN1`, the Stimulation at Melanocortin receptor 4 [1] was 70%. In addition, the half-maximal effective concentration (EC50) at Melanocortin receptor 4 [2] stood at 470 nM.

Consider `CCN(Cc1ccccc1N1CCN(C(=O)[C@@H](Cc2ccc(Cl)cc2)NC(=O)[C@H]2Cc3ccccc3CN2)CC1)S(C)(=O)=O`, for which, at Melanocortin receptor 4 [1], the Stimulation amounted to 100%. The compound also gave a 50% effective concentration (EC50) at Melanocortin receptor 4 [2] of 690 nM.

As to `O=C(N[C@H](Cc1ccc(Cl)cc1)C(=O)N1CCN(c2ccc(C(F)(F)F)cc2Cn2cncn2)CC1)[C@H]1Cc2ccccc2CN1`, the Stimulation on Melanocortin receptor 4 [1] stood at 100%. Besides, on Melanocortin receptor 4 [2], it took 680 nM to reach a half-maximal effect (EC50).

With `CN(c1ccccc1N1CCN(C(=O)[C@@H](Cc2ccc(Cl)cc2)NC(=O)[C@H]2Cc3ccccc3CN2)CC1)S(C)(=O)=O`, at Melanocortin receptor 4 [1], the Stimulation turned out to be 100%. On Melanocortin receptor 4 [2], this compound gave a 50% effective concentration (EC50) of 520 nM.

In the case of `O=C(Nc1ccccc1N1CCN(C(=O)[C@@H](Cc2ccc(Cl)cc2)NC(=O)[C@H]2Cc3ccccc3CN2)CC1)C1CC1`, the Fold stimulation at Melanocortin receptor 4 [6] amounted to 21%.

As to `CC(=O)Nc1ccccc1N1CCN(C(=O)[C@@H](Cc2ccc(Cl)cc2)NC(=O)[C@H]2Cc3ccccc3CN2)CC1`, the Stimulation at Melanocortin receptor 4 [1] stood at 64%. The compound also had an EC50 at Melanocortin receptor 4 [2] of 1900 nM.

In the case of `O=C(Nc1ccccc1N1CCN(C(=O)[C@@H](Cc2ccc(Cl)cc2)NC(=O)[C@H]2Cc3ccccc3CN2)CC1)c1ccncc1`, the Fold stimulation on Melanocortin receptor 4 [6] was 30%.

On Melanocortin receptor 4 [1], `CCOC(=O)NC(=O)Nc1ccccc1N1CCN(C(=O)[C@@H](Cc2ccc(Cl)cc2)NC(=O)[C@H]2Cc3ccccc3CN2)CC1` displayed a Stimulation of 24%. At Melanocortin receptor 4 [2], the midpoint of the response, the EC50, lay at 650 nM.

On Melanocortin receptor 4 [1], `O=C(N[C@H](Cc1ccc(Cl)cc1)C(=O)N1CCN(c2ccccc2NS(=O)(=O)C(F)(F)F)CC1)[C@H]1Cc2ccccc2CN1` gave a Stimulation of 34%. For the same compound, on Melanocortin receptor 4 [2], the 50% effective concentration (EC50) amounted to 4400 nM.

Compound `O=C(N[C@H](Cc1ccc(Cl)cc1)C(=O)N1CCN(c2ccccc2Cn2cnnc2)CC1)[C@H]1Cc2ccccc2CN1` yielded a Stimulation at Melanocortin receptor 4 [1] of 100%. For the same compound, the EC50 in test [3] is over 10000 nM; on Melanocortin receptor 3, over 3000 nM; in test [4], over 3000 nM; on Melanocortin receptor 4 [2], 24 nM; at Melanocortin receptor 5 it was over 3000 nM; at Melanocortin receptor 4 [5], 38 nM.

With `CS(=O)(=O)Nc1ccccc1N1CCN(C(=O)[C@@H](Cc2ccc(Cl)cc2)NC(=O)[C@H]2Cc3ccccc3CN2)CC1`, the Stimulation at Melanocortin receptor 4 [1] amounted to 100%. Also, on Melanocortin receptor 4 [2], the EC50 stood at 380 nM.

For the compound `CC(C)S(=O)(=O)Nc1ccccc1N1CCN(C(=O)[C@@H](Cc2ccc(Cl)cc2)NC(=O)[C@H]2Cc3ccccc3CN2)CC1`, the Stimulation on Melanocortin receptor 4 [1] was 85%. In addition, the 50% effective concentration (EC50) on Melanocortin receptor 4 [2] was 440 nM.

Take `O=C(NCc1ccccc1)Nc1ccccc1N1CCN(C(=O)[C@@H](Cc2ccc(Cl)cc2)NC(=O)[C@H]2Cc3ccccc3CN2)CC1`: the Stimulation on Melanocortin receptor 4 [1] was determined as 62%. At Melanocortin receptor 4 [2], this compound yielded an EC50 of 1000 nM.

As for `COCC(=O)Nc1ccccc1N1CCN(C(=O)[C@@H](Cc2ccc(Cl)cc2)NC(=O)[C@H]2Cc3ccccc3CN2)CC1`, the Stimulation at Melanocortin receptor 4 [1] is 34%. At Melanocortin receptor 4 [2], this compound came in with a concentration for a half-maximal effect (EC50) of 600 nM.

In the case of `CC(C)(C)CN(Cc1ccccc1N1CCN(C(=O)[C@@H](Cc2ccc(Cl)cc2)NC(=O)[C@H]2Cc3ccccc3CN2)CC1)S(C)(=O)=O`, the Stimulation at Melanocortin receptor 4 [1] was found to be 100%. On Melanocortin receptor 4 [2], this compound had an EC50 of 2400 nM.
